In patent US20140158116A1, “INHIBITING TRPA1 FOR THE TREATMENT OF ASTHMA” (Cubist Pharmaceuticals, Inc., priority 2012, published 2014):
Where two headings read alike, the source gives them in different places.

What was measured:
rTRPA1 = rTRPA1 (Rattus norvegicus, UniProt Q6RI86); assay: Whole-cell patch clamp block of inward current through rTRPA1; assay type: cell-based
Experimental: (§1) Data for TRPA1 inhibition and the selectivity of TRPA1 inhibition was obtained by this method for the compound of Formula (Ia) and included in Table 1 and Table 2. All currents were recorded in whole-cell configuration using EPC-9 and EPC-10 amplifiers and Patchmaster software (HEKA). […] The standard pipette solution consisted of 140 mM CsAsp, 10 mM EGTA, 10 mM HEPES, 2.27 mM MgCl2, 1.91 mM CaCl2, 4 mM MgATP, and 0.1-0.3 mM Na2GTP, with pH adjusted to 7.2 with CsOH. In addition, a solution containing 145 mM CsCl, 10 mM HEPES, 10 mM EGTA and 1 mM MgCl2 (pH 7.2 adjusted with CsOH) can be used. The standard bath solution contained 150 mM NaCl, 10 mM HEPES, 10 mM glucose, 4.5 mM KCl, 1 mM EGTA, 3 mM MgCl2, with pH adjusted to 7.4 with NaOH. In some instances, 2 mM CaCl2 was added in place of EGTA and the concentration of MgCl2 was reduced to 1 mM.
Data were collected either by continuous recordings at −60 mV or by applying voltage ramps from a holding potential of 0 mV every 4 s. Continuous recordings were collected at 400 Hz and digitally filtered off-line at 10 Hz for presentation. Voltage ramps were applied from −100 mV to 100 mV over the course of 400 ms, and data were collected at 10 kHz and filtered at 2.9 kHz. Inward and outward currents were analyzed from the ramps at −80 and 80 mV, respectively. Liquid junction potential correction was not used.
Solutions were switched using a gravity-fed continuous focal perfusion system. To achieve rapid temperature changes, two temperature control and perfusion systems were employed simultaneously. For temperatures ≧22° C., a Warner Instruments bipolar temperature controller (TC-344B) and inline heater (SHM-8) were used. […] Temperatures were confirmed using a thermistor (Warner Instruments, TA-29), with temperatures at the recorded cell estimated to be within +/−2° C. of those reported.
IC50 of compounds was estimated by testing each compound at 5 micromolar and 500 nanomolar. […] IC50 for compounds between 500 nanomolar and 5 micromolar was similarly estimated. […]

[1] = system: formalin-induced pain behavior; assay: Formalin-induced pain behavior in vivo rodent model; set-up: species or system rat; settings: vehicle 88.6
Source text: The data shown in Tables 3a, 3b, and 3c and FIG. 2 were obtained by administering a pharmaceutical composition comprising the compound of Formula (Ia) to rodents in the formalin-induced pain duration at various doses according to Example 5. Specifically, the data in Tables 3a, 3b, and 3c and FIG. 2 were obtained by intraperitoneal (i.p.) administration of compositions containing different concentrations of the compound of Formula (Ia), a comparator composition containing recited amounts of the comparator compound (e.g., 150 mg/kg of the comparator compound of Formula (II) in Table 3a) and a control composition containing the vehicle (e.g., without the compound of Formula (Ia) or a comparator compound).
The compound of Formula (Ia) and the comparator compounds of Formula (II) and Formula (III) were tested in the formalin-induced pain test reported by Dubuisson et al., Pain 1977 December; 4(2):161-74 (incorporated herein by reference in its entirety). Dubuisson et al. (1977) describe a method for assessing pain and analgesia in rats and cats. Briefly, dilute formalin (50 μL of 3% formalin) is injected into the plantar surface of the hind paw. […] The individual responsible for counting the pain behaviors in a particular study is blinded to the treatment groups.
Rats were treated with the HCl salt of Compound (Ia) at various doses (3, 10, 30, and 50 mg/kg, IP) or with the vehicle (IP).

hTRPV1 = hTRPV1 (Homo sapiens, UniProt Q8NER1); assay: Patch clamp selectivity, hTRPV1; assay type: cell-based
Experimental: as §1
(§2) Data were collected either by continuous recordings at −60 mV or by applying voltage ramps from a holding potential of 0 mV every 4 s. […] Inward and outward currents were analyzed from the ramps at −80 and 80 mV, respectively. […]
(§3) Solutions were switched using a gravity-fed continuous focal perfusion system. […] Temperatures were confirmed using a thermistor (Warner Instruments, TA-29), with temperatures at the recorded cell estimated to be within +/−2° C. of those reported. […]

hNaV1.2 = hNaV1.2 (Homo sapiens, UniProt Q99250); assay: Patch clamp selectivity, hNaV1.2; assay type: cell-based
Experimental: as §1, §2, §3

hERG = hERG (Homo sapiens, UniProt Q12809); assay: Patch clamp selectivity, hERG; assay type: cell-based
Experimental: as §1, §2, §3

[2] = Oral bioavailability pharmacokinetic study; assay type: in vivo; settings: rat, plasma, PO versus IV
Experimental: The potency and pharmacokinetic (PK) properties of (a) the compound of Formula (Ia); and (b) comparator compound of Formula (III) were evaluated. Bioavailability was measured as well. A pharmacokinetic study was performed to obtain a plasma drug concentration vs time plot for the drug after both intravenous (IV) and oral (PO) administration. The absolute bioavailability is the dose-corrected area under curve (AUC) non-intravenous divided by AUC intravenous. The formula for calculating F for a drug administered by the oral route (PO) is given below.
The bioavailability was calculated using the equation shown below:
% F=AUC PO×Dose IV/AUC IV×Dose PO

[3] = system: serum biomarkers of hepatotoxicity (ALT, AST, ALP, GGT); assay: Hepatotoxicity serum biomarker study in dogs, oral dose; assay type: in vivo, dog; settings: dogs; 50 mg/kg PO
Experimental: The compound of Formula (Ia) was orally dosed to […] at dose levels of 5, 15 or 50 mg/kg using 30% Sulfobutylether β-cyclodextrin as the vehicle for assessment of safety as measured via serum chemistry biomarkers of hepatotoxicity or bile duct injury FIG. 5A, showing measurements of alanine aminotranferease [ALT], aspartate aminotranferease [AST], alkaline phosphatase [ALP] and gamma-glutamyl transferase [GGT] in the dogs at each dose level (each bar represents a measurement from 1 dog in the study). […] For example, the ALT levels were elevated up to about 60-fold in male dogs and up to about 130-fold in female beagle dogs following a single PO dose of 50 mg/kg.

Chain of hNaV1.2 (Q99250 whole entry): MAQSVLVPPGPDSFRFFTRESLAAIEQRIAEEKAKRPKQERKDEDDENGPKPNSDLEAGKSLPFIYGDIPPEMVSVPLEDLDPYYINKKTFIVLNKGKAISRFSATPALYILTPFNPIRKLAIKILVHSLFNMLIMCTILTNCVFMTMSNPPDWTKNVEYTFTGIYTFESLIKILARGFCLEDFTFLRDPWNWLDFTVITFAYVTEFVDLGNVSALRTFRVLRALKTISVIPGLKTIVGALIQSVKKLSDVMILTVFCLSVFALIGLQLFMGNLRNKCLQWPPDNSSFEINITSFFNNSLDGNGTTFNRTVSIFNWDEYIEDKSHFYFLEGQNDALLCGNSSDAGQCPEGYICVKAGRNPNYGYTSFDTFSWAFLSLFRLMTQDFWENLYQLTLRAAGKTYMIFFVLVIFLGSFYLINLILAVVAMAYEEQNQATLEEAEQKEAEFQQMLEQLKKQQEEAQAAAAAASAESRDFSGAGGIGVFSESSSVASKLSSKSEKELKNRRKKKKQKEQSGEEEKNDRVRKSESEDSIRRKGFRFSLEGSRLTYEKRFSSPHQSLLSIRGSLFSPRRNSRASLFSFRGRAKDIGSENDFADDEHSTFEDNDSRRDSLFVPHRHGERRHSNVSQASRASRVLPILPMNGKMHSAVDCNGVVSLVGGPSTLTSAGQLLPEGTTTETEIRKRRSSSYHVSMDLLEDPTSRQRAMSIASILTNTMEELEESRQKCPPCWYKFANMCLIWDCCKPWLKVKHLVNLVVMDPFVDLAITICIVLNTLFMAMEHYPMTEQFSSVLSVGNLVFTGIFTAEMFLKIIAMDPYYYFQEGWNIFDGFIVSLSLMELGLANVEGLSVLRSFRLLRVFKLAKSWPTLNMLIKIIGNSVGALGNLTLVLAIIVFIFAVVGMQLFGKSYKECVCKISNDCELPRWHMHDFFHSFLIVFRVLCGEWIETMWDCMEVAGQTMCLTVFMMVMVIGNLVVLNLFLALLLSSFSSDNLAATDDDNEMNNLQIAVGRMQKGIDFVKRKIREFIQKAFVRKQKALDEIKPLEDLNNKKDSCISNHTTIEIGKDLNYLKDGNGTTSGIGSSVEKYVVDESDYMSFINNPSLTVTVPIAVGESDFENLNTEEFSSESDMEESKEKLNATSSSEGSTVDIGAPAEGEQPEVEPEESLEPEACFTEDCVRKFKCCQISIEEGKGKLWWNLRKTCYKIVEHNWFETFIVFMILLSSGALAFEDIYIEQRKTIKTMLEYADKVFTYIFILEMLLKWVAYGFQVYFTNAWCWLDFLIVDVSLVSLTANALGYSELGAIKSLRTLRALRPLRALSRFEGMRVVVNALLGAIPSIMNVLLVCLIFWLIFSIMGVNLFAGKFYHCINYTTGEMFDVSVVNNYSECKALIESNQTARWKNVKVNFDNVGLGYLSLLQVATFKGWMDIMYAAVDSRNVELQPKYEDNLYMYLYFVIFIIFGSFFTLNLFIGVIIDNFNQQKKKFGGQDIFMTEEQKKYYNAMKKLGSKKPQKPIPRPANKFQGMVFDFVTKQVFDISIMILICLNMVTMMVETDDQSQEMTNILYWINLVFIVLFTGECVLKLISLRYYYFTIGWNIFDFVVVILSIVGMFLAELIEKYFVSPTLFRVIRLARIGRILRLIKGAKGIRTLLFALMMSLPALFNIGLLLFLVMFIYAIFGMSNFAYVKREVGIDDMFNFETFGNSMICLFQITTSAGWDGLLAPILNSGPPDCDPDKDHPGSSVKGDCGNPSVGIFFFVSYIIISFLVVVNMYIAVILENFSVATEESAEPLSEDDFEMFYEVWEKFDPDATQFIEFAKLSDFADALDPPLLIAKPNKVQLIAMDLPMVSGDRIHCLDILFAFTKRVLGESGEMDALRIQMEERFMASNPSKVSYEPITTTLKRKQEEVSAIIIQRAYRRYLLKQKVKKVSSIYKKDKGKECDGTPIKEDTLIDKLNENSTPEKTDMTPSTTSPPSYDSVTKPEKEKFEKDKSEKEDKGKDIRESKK
Chain of rTRPA1 (Q6RI86 whole entry): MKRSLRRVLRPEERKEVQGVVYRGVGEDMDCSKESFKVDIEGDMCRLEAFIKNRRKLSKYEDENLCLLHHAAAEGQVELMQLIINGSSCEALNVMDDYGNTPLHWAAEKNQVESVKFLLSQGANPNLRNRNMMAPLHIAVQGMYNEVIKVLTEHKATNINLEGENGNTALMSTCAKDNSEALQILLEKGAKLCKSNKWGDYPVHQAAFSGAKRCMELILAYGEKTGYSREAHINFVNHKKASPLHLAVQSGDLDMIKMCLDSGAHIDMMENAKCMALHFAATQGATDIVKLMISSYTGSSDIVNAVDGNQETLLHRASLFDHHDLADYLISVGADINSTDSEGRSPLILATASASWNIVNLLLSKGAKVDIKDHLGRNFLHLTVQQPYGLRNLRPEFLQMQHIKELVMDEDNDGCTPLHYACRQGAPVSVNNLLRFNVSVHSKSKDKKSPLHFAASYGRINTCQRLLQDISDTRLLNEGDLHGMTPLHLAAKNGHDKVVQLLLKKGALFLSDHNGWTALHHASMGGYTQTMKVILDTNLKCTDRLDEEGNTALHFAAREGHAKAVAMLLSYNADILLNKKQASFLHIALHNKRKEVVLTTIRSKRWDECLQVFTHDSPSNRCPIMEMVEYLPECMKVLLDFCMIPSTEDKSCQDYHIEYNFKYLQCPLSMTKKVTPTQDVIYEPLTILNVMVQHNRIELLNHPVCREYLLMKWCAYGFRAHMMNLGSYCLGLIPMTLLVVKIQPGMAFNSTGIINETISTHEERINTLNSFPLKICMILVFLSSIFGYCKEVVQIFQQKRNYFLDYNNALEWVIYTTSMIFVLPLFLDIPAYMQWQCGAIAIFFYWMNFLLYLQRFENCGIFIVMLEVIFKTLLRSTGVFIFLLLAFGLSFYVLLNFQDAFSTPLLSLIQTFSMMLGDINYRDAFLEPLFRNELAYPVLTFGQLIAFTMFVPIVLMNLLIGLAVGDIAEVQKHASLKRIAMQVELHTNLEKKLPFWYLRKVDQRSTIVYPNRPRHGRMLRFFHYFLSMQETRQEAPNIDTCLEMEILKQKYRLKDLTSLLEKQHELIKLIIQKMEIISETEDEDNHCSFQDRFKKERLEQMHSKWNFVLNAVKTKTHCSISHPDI
Chain of hERG (Q12809 whole entry): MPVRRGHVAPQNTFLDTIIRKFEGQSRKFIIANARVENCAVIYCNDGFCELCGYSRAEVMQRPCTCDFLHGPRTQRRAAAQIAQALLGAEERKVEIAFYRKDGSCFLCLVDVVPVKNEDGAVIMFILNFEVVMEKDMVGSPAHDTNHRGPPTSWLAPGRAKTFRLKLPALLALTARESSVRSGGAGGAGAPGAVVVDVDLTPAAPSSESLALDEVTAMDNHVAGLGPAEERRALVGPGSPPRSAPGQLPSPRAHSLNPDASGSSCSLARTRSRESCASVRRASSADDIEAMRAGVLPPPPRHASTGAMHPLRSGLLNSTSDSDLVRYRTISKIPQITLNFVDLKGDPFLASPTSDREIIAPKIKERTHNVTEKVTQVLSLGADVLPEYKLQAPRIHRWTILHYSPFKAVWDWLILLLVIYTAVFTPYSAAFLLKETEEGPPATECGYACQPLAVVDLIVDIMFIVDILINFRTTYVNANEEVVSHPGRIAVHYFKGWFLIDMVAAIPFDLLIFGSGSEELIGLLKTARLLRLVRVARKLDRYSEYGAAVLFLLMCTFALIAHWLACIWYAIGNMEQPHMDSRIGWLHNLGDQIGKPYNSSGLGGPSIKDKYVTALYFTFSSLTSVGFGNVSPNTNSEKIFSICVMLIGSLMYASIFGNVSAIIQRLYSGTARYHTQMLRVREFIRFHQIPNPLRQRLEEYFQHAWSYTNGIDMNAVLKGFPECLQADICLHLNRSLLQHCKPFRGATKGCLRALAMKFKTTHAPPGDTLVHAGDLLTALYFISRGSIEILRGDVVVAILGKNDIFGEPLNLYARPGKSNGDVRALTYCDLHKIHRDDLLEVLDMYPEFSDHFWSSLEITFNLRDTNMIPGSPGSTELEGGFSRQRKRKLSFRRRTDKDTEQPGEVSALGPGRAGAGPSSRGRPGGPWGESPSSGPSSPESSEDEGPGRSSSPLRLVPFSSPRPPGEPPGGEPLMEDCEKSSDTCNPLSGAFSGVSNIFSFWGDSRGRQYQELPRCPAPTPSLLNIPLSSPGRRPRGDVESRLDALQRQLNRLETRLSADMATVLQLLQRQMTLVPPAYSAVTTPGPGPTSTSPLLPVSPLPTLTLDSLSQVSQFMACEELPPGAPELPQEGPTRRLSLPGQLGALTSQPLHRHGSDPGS
Chain of hTRPV1 (Q8NER1 whole entry): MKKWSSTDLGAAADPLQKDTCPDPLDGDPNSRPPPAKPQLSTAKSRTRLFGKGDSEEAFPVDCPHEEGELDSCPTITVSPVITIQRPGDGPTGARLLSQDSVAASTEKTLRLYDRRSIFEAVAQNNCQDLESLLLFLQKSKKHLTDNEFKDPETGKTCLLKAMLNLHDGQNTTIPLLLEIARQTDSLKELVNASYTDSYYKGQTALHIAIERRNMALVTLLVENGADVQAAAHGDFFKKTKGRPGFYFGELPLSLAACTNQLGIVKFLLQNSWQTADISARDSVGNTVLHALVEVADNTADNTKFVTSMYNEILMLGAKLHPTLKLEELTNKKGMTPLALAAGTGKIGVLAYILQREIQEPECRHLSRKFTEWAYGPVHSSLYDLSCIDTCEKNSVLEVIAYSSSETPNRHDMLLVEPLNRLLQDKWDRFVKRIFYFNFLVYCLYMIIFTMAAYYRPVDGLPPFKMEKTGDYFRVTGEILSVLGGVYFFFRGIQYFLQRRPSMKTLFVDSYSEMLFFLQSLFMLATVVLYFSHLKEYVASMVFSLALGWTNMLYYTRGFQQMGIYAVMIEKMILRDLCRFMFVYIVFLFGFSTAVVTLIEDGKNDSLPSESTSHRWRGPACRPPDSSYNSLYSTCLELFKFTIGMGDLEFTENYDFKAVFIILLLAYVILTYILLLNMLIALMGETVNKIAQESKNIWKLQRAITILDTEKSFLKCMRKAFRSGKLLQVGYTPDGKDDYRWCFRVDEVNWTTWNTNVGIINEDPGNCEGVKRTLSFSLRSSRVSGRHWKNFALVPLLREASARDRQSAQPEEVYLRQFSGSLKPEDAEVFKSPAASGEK

IC50 (rTRPA1; class symbol, read-out: Potency (IC50) Rat): ≥ 0.1 µM
IC50 (rTRPA1; rTRPA1, Rat, current activation 10 micromolar AITC, read-out: IC50 Inward current): 0.101 ± 0.008 µM
Fold Selectivity Compared to TRPA1 (hTRPV1): >100 fold
IC50 (hTRPV1; 500 nanomolar Capsaicin, Inward (−80 mV)): > 10 µM
Fold Selectivity Compared to TRPA1 (hNaV1.2): >100 fold
IC50 (hNaV1.2; Voltage, Peak Inward (0 mV)): > 10 µM
bioavailability ([2]; oral, fed rats, read-out: Bioavailability (Rat) Fed): > 50%
bioavailability ([2]; po, fasted rats, read-out: Bioavailability (Rat) Fasted): 25 to 50%
bioavailability ([2]; po, fed rats, read-out: Bioavailability (Rat) Fed): > 50%
SMILES: C[C@H]1CCCN1c1ncc(-c2cccc(NC(=O)Cn3cnc4c3c(=O)n(C)c(=O)n4C)n2)cn1 [Formula (Ia)]
Duration of Pain Behavior ([1]; 3 mg/kg i.p.): 82.3 s
Duration of Pain Behavior ([1]; 10 mg/kg i.p.): 85.8 s
Duration of Pain Behavior ([1]; 30 mg/kg i.p.): 49.8 s
Duration of Pain Behavior ([1]; 50 mg/kg i.p.): 5.9 s
IC50 (hERG; Voltage, Tail current (−40 mV)): > 10 µM
selectivity ratio (hERG; human, pH 7.4, read-out: Fold Selectivity Compared to TRPA1): > 100
effect on serum biomarkers of hepatotoxicity [3]: did not elevate serum biomarkers of hepatotoxicity or acute phase response
